US20170099837A1, “EXTRACTS OF AGRICULTURAL HUSKS USED TO MODIFY THE METABOLISM OF PLANTS” (priority 2014, published 2017)

Legend:
pepper bell seedlings = test: Protection of pepper bell seedlings exposed to saline stress
Description: Protection offered by the composition in plants exposed to saline stress was observed through an assay with pepper bell seedlings, cultivar “npiter”. These seedlings were placed in germination plates with peat-moss as substrate and kept during a 40-day period and then transferred to 5-L pots. Adaptation period before treatment commencement consisted of daily irrigation during 10 days reaching saturation by a nutrient formulation based on 100-50-100 N-P-K at 1 mg/L concentrations. Used treatments in the assay were prepared in 100 L containers where NaCl was added until reaching a concentration of 25 mM/L, plus nutrients based on Hoagland formula (50% of its concentration). Irrigation frequency with this nutrient solution was every day, applying a 350 cm^3 volume per plant during the whole assay. Composition application was carried out once per week at a dose of […]. Based on a daily irrigation volume of 350 mL/plant, weekly application of the composition was 0.6 cm^3 per 7 days in 350 cm^3 of irrigation water per plant.

Daphnia magna = test: 48-h static toxicity test on Daphnia magna; conditions: in vivo
Description: In contrast, pure nitrated phenolic compounds such as p-nitrofenol show toxicities up to 125 times higher, measured as mean lethal concentration (CL50) over Daphnia magna or as concentration without observed effect (CSEO by its Spanish acronym).
The study was carried out to determine composition toxicity on Daphnia magna in a 48-h static test. Test concentrations were determined through a range test. Concentrations used for the definitive test were 62.5, 125, 250, 500 and 1000 mg/L, administered to the system, Daphnia magna, in fresh water. Three copies of 10 organisms were used for each concentration test. Control containers were used, placing 10 daphnides in fresh water without the composition. Dissolved oxygen, temperature, conductivity and pH were assessed at the beginning of the test and after each dose. Observations for immobility were made daily in a test chamber. The test ended after 48±1 hour of exposure. The concentration without observed effect (CSEO) of the composition was 250 mg/L and CE50 (Mean Effective Concentration) was determined higher than 1000 mg/L.

[1] = 25 mM NaCl irrigation, composition 0.6 mL per plant per day applied weekly

Structure (SMILES)	Foliar area (cm^2/plant) (pepper bell seedlings; [1])	Leaves per plant (pepper bell seedlings; [1])	reduction of number of leaves per plant (pepper bell seedlings; treatment with 25 mM NaCl)	toxicity relative to the composition, measured as mean lethal concentration (CL50) over Daphnia magna or as CSEO (Daphnia magna)
[Cl-].[Na+] [25 mM NaCl, NaCl]	1050 cm^2/plant	50	about 27%	
O=[N+]([O-])c1ccc(O)cc1 [p-nitrofenol]				up to 125 times higher
